Results from patent US9877962B2, “Piperazinyl derivatives for the treatment of cancer” (priority 2011, dated 2018).

How the values were obtained:
NCI 60 cell lines = test: NCI 60 tumor cell line panel (SRB); type: cell-based, human; settings: concentration of 10 μM, 48 h, FIG. 3
Protocol: Compound I-43b has been tested in the NCI 60 cell line panel. This screen utilizes 60 different human tumor cell lines, representing leukemia, melanoma, lung cancer, colon cancer, CNS cancer, ovarian cancer, breast cancer, prostate cancer and renal cancer.
The 60 human tumor cell lines of the cancer screening panel are grown in RPMI 1640 medium containing 5% fetal bovine serum and 2 mM L-glutamine. For a typical screening experiment, cells are inoculated into 96 well microtiter plates in 100 μL at plating densities ranging from 5,000 to 40,000 cells/well depending on the doubling time of individual cell lines. […]
Following drug addition, the plates are incubated for an additional 48 h at 37° C., 5% CO2, 95% air, and 100% relative humidity. […] Bound stain is subsequently solubilized with 10 mM trizma base, and the absorbance is read on an automated plate reader at a wavelength of 515 nm. […] Using the seven absorbance measurements [time zero (Tz), control growth (C), and test growth in the presence of drug at the five concentration levels (Ti)], the percentage growth is calculated at each of the drug concentrations levels. Percentage growth inhibition is calculated as: [(Ti−Tz)/(C−Tz)]×100 for concentrations for which Ti>/=Tz [(Ti−Tz)/Tz]×100 for concentrations for which Ti<Tz.
Three dose response parameters are calculated for each experimental agent. […]

[1] = tested on: 3 human cancer cell lines established from Head & Neck (HNSCC); test: MTT cell proliferation assay on HNSCC cell lines; type: cell-based; settings: MTT assay after 72 hours of treatment, FIG. 2
Protocol: (§1) Compound I-43b has been tested in 3 human cancer cell lines established from Head & Neck (HNSCC) and in 4 human cancer cell lines established hepatocarcinoma (HCC). […] Cell proliferation has been evaluated using the MTT assay after 72 hours of treatment.

[2] = tested on: 4 human cancer cell lines established hepatocarcinoma (HCC); test: MTT cell proliferation assay on HCC cell lines; type: cell-based; settings: MTT assay after 72 hours of treatment, FIG. 2
Protocol: as §1

Cc1cc(Oc2ccccc2)ccc1N(C(=O)CCl)[C@H](C(=O)N1CCN[C@@H](C)C1)c1cccs1 (single isomer, unassigned) [Example I-43b]
growth inhibition of NCI 60 tumor cell lines, single dose screen (NCI 60 cell lines): selective growth inhibition on all these tumor cell lines
cell proliferation inhibition, HNSCC cell lines [1]: inhibited cell proliferation in a concentration dependent manner
cell proliferation inhibition, HCC cell lines [2]: inhibited cell proliferation in a concentration dependent manner
